From patent publication US20130184273A1, “BICYCLIC PYRIMIDINES” (Bayer Intellectual Property GmbH, priority 2010, published 2013)

Tests used:
[1] = target: T1, His-tagged human recombinant kinase full-length Akt1 (Homo sapiens, UniProt P31749); test: Akt1 kinase assay (TR-FRET); format: biochemical; conditions: 10 μM ATP, 60 min at 22° C., read-out: Akt1, median IC50
T1 construct: His-tagged human recombinant kinase full-length Akt1; His; purchased Invitrogen PV 3599; host or cells: insect cells
Text: Akt1 inhibitory activity of compounds of the present invention was quantified employing the Akt1 TR-FRET assay as described in the following paragraphs.
(§1) His-tagged human recombinant kinase full-length Akt1 expressed in insect cells was purchased form Invitrogen (part number PV 3599). As substrate for the kinase reaction the biotinylated peptide biotin-Ahx-KKLNRTLSFAEPG (C-terminus in amide form) was used which can be purchased e.g. from the company Biosynthan GmbH (Berlin-Buch, Germany).
(§2) For the assay 50 nl of a 100 fold concentrated solution of the test compound in DMSO was pipetted into a black low volume 384well microtiter plate (Greiner Bio-One, Frickenhausen, Germany), 2 μl of a solution of Akt1 in assay buffer [50 mM TRIS/HCl pH 7.5, 5 mM MgCl2, 1 mM dithiothreitol, 0.02% (v/v) Triton X-100 (Sigma)] were added and the mixture was incubated for 15 min at 22° C. to allow pre-binding of the test compounds to the enzyme before the start of the kinase reaction. Then the kinase reaction was started by the addition of 3 μl of a solution of adenosine-tri-phosphate (ATP, 16.7 μM=>final conc. in the 5 μl assay volume is 10 μM) and substrate (1.67 μM=>final conc. in the 5 μl assay volume is 1 μM) in assay buffer and the resulting mixture was incubated for a reaction time of 60 min at 22° C. The concentration of Akt1 in the assay was adjusted depending of the activity of the enzyme lot and was chosen appropriate to have the assay in the linear range, typical enzyme concentrations were in the range of about 0.05 ng/μl (final conc. in the 5 μl assay volume).
The reaction was stopped by the addition of 5 μl of a solution of HTRF detection reagents (200 nM streptavidine-XL665 [Cisbio] and 1.5 nM anti-phosho-Serine antibody [Millipore, cat. #35-001] and 0.75 nM LANCE Eu-W 1024 labeled anti-mouse IgG antibody [Perkin Elmer]) in an aqueous EDTA-solution (100 mM EDTA, 0.1% (w/v) bovine serum albumin in 50 mM HEPES/NaOH pH 7.5). The resulting mixture was incubated 1 h at 22° C. to allow the binding of the biotinylated phosphorylated peptide to the streptavidine-XL665 and the antibodies. Subsequently the amount of phosphorylated substrate was evaluated by measurement of the resonance energy transfer from the anti-mouse-IgG-Eu-Chelate to the streptavidine-XL665. Therefore, the fluorescence emissions at 620 nm and 665 nm after excitation at 350 nm was measured in a HTRF reader, e.g. a Rubystar (BMG Labtechnologies, Offenburg, Germany) or a Viewlux (Perkin-Elmer). The ratio of the emissions at 665 nm and at […] was taken as the measure for the amount of phosphorylated substrate. The data were normalised (enzyme reaction without inhibitor=0% inhibition, all other assay components but no enzyme=100% inhibition).

[2] = target: T2, His-tagged human recombinant kinase full-length Akt2 (Homo sapiens, UniProt P31751); test: Akt2 kinase assay (TR-FRET); format: biochemical; conditions: 10 μM ATP, 60 min at 22° C., read-out: Akt2, median IC50
T2 construct: His-tagged human recombinant kinase full-length Akt2; His; purchased Invitrogen PV 3975; host or cells: insect cells
Text: Akt2 inhibitory activity of compounds of the present invention was quantified employing the Akt2 TR-FRET assay as described in the following paragraphs.
as §1, with “Akt2” for “Akt1”, “cells and activated by PDK1” for “cells”, “3975).” for “3599).”
as §2, with “Akt2” for “Akt1”, “0.2” for “0.05”
The reaction was stopped by the addition of 5 μl of a solution of HTRF detection reagents (200 nM streptavidine-XL665 [Cisbio] and 1.5 nM anti-phosho-Serine antibody [Millipore, cat. #35-001] and 0.75 nM LANCE Eu-W 1024 labeled anti-mouse IgG antibody [Perkin Elmer]) in an aqueous EDTA-solution (100 mM EDTA, 0.1% (w/v) bovine serum albumin in 50 mM HEPES/NaOH pH 7.5).
The resulting mixture was incubated 1 h at 22° C. to allow the binding of the biotinylated phosphorylated peptide to the streptavidine-XL665 and the antibodies.
Subsequently the amount of phosphorylated substrate was evaluated by measurement of the resonance energy transfer from the anti-mouse-IgG-Eu-Chelate to the streptavidine-XL665. Therefore, the fluorescence emissions at 620 nm and 665 nm after excitation at 350 nm was measured in a TR-FRET reader, e.g. a Rubystar (BMG Labtechnologies, Offenburg, Germany) or a Viewlux (Perkin-Elmer). The ratio of the emissions at 665 nm and at […] was taken as the measure for the amount of phosphorylated substrate. The data were normalised (enzyme reaction without inhibitor=0% inhibition, all other assay components but no enzyme=100% inhibition).

[3] = test system: KPL-4 breast cancer cell line; test: Tumor cell proliferation assay (CellTiter-Glo); format: cell-based; conditions: KPL4, 72 h drug exposure
Description: Compounds were tested in a cell-based assay that measures the capacity of the compounds to inhibit tumour cell proliferation following a 72 h drug exposure. Cell viability is determined using CellTiter-Glow® (CTG, Promega, cat #G7571/2/3). The CellTiter-Glo® Luminescent Cell Viability Assay is a homogeneous method to determine the number of viable cells in culture. Detection is based on using the luciferase reaction to measure the amount of ATP from viable cells. The amount of ATP in cells correlates with cell viability. Within minutes after a loss of membrane integrity, cells lose the ability to synthesize ATP, and endogenous ATPases destroy any remaining ATP; thus the levels of ATP fall precipitously.
Cells were plated at 3000-5000 cells/well (depending on the cell lines) in 90 μL growth medium on MTPs (Corning; #3603, black plate, clear flat bottom). For each cell line assayed, cells were plated onto a separate plate for determination of […] at t=0 hour and t=72 hour time points. Following overnight incubation at 37° C., chemiluminescence values for the t=0 samples were determined after adding 10 μl medium and 100 μl CTG solution according to manufacture protocol. Plates for the t=72 hour time points were treated with compounds diluted into growth medium at ten times final concentration added in 10 μL to the cell culture plate. Cells were then incubated for 72 hours at 37° C. Chemiluminescence values for the t=72 hour samples were determined. […] Experiments were controlled using a reference compound as standard.

[4] = test system: phospho-AKT at S473 in KPL4 breast tumour cell line; test: Cellular p-AKT1/2/3-S473 assay; format: cell-based; conditions: KPL4 cells, treated with compounds for 2 hours; read-out: pAKT-S743 median IC50
Description: The molecular mechanism of action was investigated in a set of experiments to assess the inhibition of the PI3K-AKT-mTOR pathway in responsive cell lines such as KPL4 breast tumour cell line (PIK3CAH1047R, HER20/E and hormone independent). The phospho-substrates of PI3K-AKT-mTOR axis were used as the read-outs to reflect pathway inhibition. Cells were seeded at 60-80% confluency per well in 96-well cell culture plates. After overnight incubation at 37° C. 5% CO2, cells were treated with compounds and vehicle at 37° C. for 2 hours. Thereafter, cells were lysed in 150 μl lysis buffer and the levels of phospho-AKT at T308 and S473 and p-4E-BP1 at T70 sites were determined with the corresponding AlphaScreen® SureFire® assay kits (Perkin Elmer: 4E-BP1 Assay Kit Cat # TRG4E2S10K; Akt 1/2/3 p-Ser 473 #TGRA4S500 and Akt 1/2/3 p-Thr 308 #TGRA3S500 as well as IgG detection Kit #6760617M) as described in the manuals. All measurements where at least done in duplicates and confirmed by independent repetition.
Alternatively pAKT-S473 was measured using the “Akt Duplex” of the MULTI-SPOT® Assay System (Fa. Meso Scale Discovery, Cat#N41100B-1) following manufacturers instructions. Each assay used 20 μg of protein extract and measured total AKT and p-AKT content simultaneously in one well. All measurements where at least done in duplicates and confirmed by independent repetition. Values for P-AKT are expressed as percentage of P-AKT level compared to total-AKT content of the extracts.

T1 sequence (P31749 whole entry): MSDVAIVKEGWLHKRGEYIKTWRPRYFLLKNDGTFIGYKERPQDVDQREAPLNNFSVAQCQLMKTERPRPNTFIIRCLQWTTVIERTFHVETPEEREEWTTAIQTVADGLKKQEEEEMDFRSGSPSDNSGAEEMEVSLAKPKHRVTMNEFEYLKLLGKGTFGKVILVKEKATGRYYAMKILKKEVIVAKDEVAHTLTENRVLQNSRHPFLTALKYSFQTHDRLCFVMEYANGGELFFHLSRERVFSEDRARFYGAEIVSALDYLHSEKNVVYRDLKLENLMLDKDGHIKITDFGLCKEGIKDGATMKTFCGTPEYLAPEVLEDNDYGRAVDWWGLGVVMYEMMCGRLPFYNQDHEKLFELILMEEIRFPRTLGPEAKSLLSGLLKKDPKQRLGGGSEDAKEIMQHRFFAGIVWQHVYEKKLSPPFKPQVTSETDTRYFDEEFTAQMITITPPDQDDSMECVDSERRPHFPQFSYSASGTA
T2 sequence (P31751 whole entry): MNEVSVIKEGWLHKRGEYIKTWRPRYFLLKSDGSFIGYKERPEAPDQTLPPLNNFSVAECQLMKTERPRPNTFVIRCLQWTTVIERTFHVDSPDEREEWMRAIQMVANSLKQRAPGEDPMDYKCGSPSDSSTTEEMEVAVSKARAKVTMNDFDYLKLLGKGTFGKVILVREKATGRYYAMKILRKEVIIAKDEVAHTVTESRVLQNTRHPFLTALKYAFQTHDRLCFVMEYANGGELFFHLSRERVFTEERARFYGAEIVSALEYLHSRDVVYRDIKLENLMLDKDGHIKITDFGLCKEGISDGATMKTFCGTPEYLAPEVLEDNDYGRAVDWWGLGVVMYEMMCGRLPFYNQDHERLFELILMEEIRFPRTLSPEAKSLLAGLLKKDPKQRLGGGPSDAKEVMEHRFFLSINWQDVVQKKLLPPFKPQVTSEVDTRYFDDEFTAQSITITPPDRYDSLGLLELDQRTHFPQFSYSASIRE

IC50 [1] [µM] | IC50 [2] [µM] | IC50 [3] [µM] | IC50 [4] [µM] | SMILES
0.283 | 0.197 | 6.19 | – | NC1(c2ccc(-c3nc4nc(Nc5ccccc5)nn4cc3-c3ccccc3)cc2)CCC1 [Example 5-4, {5-[4-(1-Amino-cyclobutyl)-phenyl]-6-phenyl-[1,2,4]triazolo[1,5-a]pyrimidin-2-yl}-phenyl-amine]
1.47 | 0.234 | 2.2 | – | CC(C)Nc1nc2nc(-c3ccc(C4(N)CCC4)cc3)c(-c3ccccc3)cn2n1 [Example 5-5, {5-[4-(1-amino-cyclobutyl)-phenyl]-6-phenyl-[1,2,4]triazolo[1,5-a]pyrimidin-2-yl}-isopropyl-amine]
0.731 | 0.303 | 3.64 | – | Cc1nc2nc(-c3ccc(C4(N)CCC4)cc3)c(-c3ccccc3)c(NC3CCC3)n2n1 [Example 5-8, {5-[4-(1-amino-cyclobutyl)-phenyl]-2-methyl-6-phenyl-[1,2,4]triazolo[1,5-a]pyrimidin-7-yl}-cyclobutyl-amine]
– | 0.629 | 2.1 | 0.54 | NC1(c2ccc(-c3nc4ncc(-c5ccc(F)c(CO)c5)n4cc3-c3ccccc3)cc2)CCC1 [Example 6-1, (5-{7-[4-(1-Amino-cyclobutyl)-phenyl]-6-phenyl-imidazo[1,2-a]pyrimidin-3-yl}-2-fluoro-phenyl)-methanol]
